Test results taken from patent US20190177284A1, “TETRAZOLYL-CONTAINING CYCLOPROPANECARBOXAMIDES” (Bayer Pharma Aktiengesellschaft, priority 2017, published 2019).

molecular target: T1, human Bradykinin B1 receptor (Homo sapiens, UniProt P46663); experiment: Calcium flux Assay (FLIPR) with cells expressing human Bradykinin B1 receptor (hB1); format: cell-based; conditions: absence of 0.1% BSA in assay buffer; CHO-K1 cell line expressing human B1 receptor; agonist Lys-(Des-Arg)-Bradykinin; read-out: hB1 free IC50
T1 construct: host or cells: CHO-K1
T1 sequence (P46663 1-353): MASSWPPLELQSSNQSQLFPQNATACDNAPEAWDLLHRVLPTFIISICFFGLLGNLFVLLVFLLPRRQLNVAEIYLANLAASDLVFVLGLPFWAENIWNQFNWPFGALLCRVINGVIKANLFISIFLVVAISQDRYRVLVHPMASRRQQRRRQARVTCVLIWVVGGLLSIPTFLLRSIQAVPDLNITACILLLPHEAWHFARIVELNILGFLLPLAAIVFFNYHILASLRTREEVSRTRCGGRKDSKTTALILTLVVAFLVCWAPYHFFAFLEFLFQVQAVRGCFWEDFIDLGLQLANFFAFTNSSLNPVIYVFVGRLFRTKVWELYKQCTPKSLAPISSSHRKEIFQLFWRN
Experimental: The potency to inhibit the Bradykinin B1 receptor was determined for the compound examples of this invention in a cell-based fluorescent calcium-mobilisation assay. The assay measures the ability of compound examples to inhibit Bradykinin B1 receptor agonist-induced increase of intracellular free Ca^2+ in the cell line expressing Bradykinin B1 receptor. Specifically, calcium indicator-loaded cells are pre-incubated in the absence or presence of different concentrations of compound examples followed by the stimulation with a selective Bradykinin B1 receptor agonist peptide. The change of the intracellular Ca^2+ concentration is monitored with a fluorescent plate reader FLIPR^TETRA®
Calcium flux Assays (FLIPR) with cells expressing human Bradykinin B1 receptor (hB1) Calcium flux Assay (FLIPR) with recombinant cells for Bradykinin B1 receptor antagonist, either in the presence (hB1 IC50) or absence (hB1 free IC50) of 0.1% Bovine Serum Albumin (BSA) in assay buffer.
CHO—K1 cell line expressing human B1 receptor was purchased from Euroscreen (Gosselies, Belgium, with reference name hB1-D1). The cells were grown in Nutrient Mixture Ham's F12 (Sigma) containing 10% Foetal bovine serum (Sigma) and 400 μg/mL G418 (Sigma), 5 μg/mL puromycin (Sigma).
For the calcium flux assay, 80% confluent cells were detached from the culture vessels with Versene (Gibco), and seeded into 384-well plates (Cell binding Surface; Corning, N.Y.; #3683) at a density of 15,000 cells per well. Cells were seeded in a volume of 50 μL in medium without antibiotics and incubated overnight in a humidified atmosphere with 5% CO2 at 37° C. […] The calcium indicator loaded cells were incubated at 37° C. for 2 hrs. Extracellular dye was then removed and each well was filled with 45 μL of assay buffer. Cell plates were kept in dark until used. Example compounds were assayed at 8 concentrations in triplicate. Serial 10-fold dilutions in 100% DMSO were made at a 100-times higher concentration than the final concentration, and then diluted 1:10 in assay buffer. 5 μL of each diluted compound was added to the well of cell plates (yielding final concentration with 1% DMSO), and incubated for 30 min at 28° C. before the addition of B1 receptor agonist on the FLIPR instrument.
Agonist plates contained the agonist Lys-(Des-Arg)-Bradykinin (Bachem, Brackley) at 3.5×EC90 in assay buffer with 1% DMSO. The addition of agonist 20 μl per well to the assay plate was carried out on the FLIPR instrument while continuously monitoring Ca^2+-dependent fluorescence at 538 nm. A peptide antagonist Lys-(Des-Arg-Leu)-Bradykinin (Bachem, Brackley) at 20 μM was used to determine the full inhibition as control.
Peak fluorescence was used to determine the response to agonist obtained at each concentration of example compound by the following equation:
% Response=100*(RFU(example compound)−RFU(control))/(RFU(DMSO)−RFU(control)) • RFU means relative fluorescence units. • Control means full inhibition by the peptide antagonist Lys-(Des-Arg-Leu)-Bradykinin at 20
The response values were plotted against the logarithm of the example compound concentrations. The example compounds were tested in triplicates per plate and mean values were plotted in Excel XLfit to determine IC50 values, percentage of maximal inhibition and the Hill slopes.
IC50 values of example compounds in Calcium flux Assay (FLIPR) as shown in table 1 were determined according to the protocol described above in the absence of 0.1% BSA in assay buffer.

IC50 [nM]	Compound
5	O=C(OC1CCCC1)c1ccc(NC(=O)C2(c3ccc(OC(F)(F)F)cc3F)CC2)cc1-c1nnn[nH]1 [Example 7, Cyclopentyl 4-[({1-[2-fluoro-4-(trifluoromethoxy)phenyl]cyclopropyl}carbonyl)amino]-2-(1H-tetrazol-5-yl)benzoate]
14	O=C(O[C@@H]1CCOC1)c1ccc(NC(=O)C2(c3ccc(C(F)(F)F)cc3F)CC2)cc1-c1nnn[nH]1 [Example 20, (3R)-Tetrahydrofuran-3-yl 4-[({1-[2-fluoro-4-(trifluoromethyl)phenyl]cyclopropyl}carbonyl)amino]-2-(1H-tetrazol-5-yl)benzoate]
4	CCC(C)OC(=O)c1ccc(NC(=O)C2(c3ccc(C(F)(F)F)cc3F)CC2)cc1-c1nnn[nH]1 (racemic) [Example 10, sec-Butyl 4-[({1-[2-fluoro-4-(trifluoromethyl)phenyl]cyclopropyl}carbonyl)amino]-2-(1H-tetrazol-5-yl)benzoate]
523	COC1CCN(C(=O)c2ccc(NC(=O)C3(c4ccc(C(F)(F)F)cc4F)CC3)cc2-c2nnn[nH]2)CC1 [Example 36, 1-[2-Fluoro-4-(trifluoromethyl)phenyl]-N-{4-[(4-methoxypiperidin-1-yl)carbonyl]-3-(1H-tetrazol-5-yl)phenyl}cyclopropanecarboxamide]
6	CC(C)(C)COC(=O)c1ccc(NC(=O)C2(c3ccc(C(F)(F)F)cc3F)CC2)cc1-c1nnn[nH]1 [Example 29, 2,2-Dimethylpropyl 4-[({1-[2-fluoro-4-(trifluoromethyl)phenyl]cyclopropyl}carbonyl)amino]-2-(1H-tetrazol-5-yl)benzoate]
445	CN(C(=O)c1ccc(NC(=O)C2(c3ccc(C(F)(F)F)cc3F)CC2)cc1-c1nnn[nH]1)C1CCOCC1 [Example 47, 4-[({1-[2-Fluoro-4-(trifluoromethyl)phenyl]cyclopropyl}carbonyl)amino]-N-methyl-N-(tetrahydro-2H-pyran-4-yl)-2-(1H-tetrazol-5-yl)benzamide]
319	CN1CCC(OC(=O)c2ccc(NC(=O)C3(c4ccc(C(F)(F)F)cc4F)CC3)cc2-c2nnn[nH]2)CC1 [Example 23, 1-Methylpiperidin-4-yl 4-[({1-[2-fluoro-4-(trifluoromethyl)phenyl]cyclopropyl}carbonyl)amino]-2-(1H-tetrazol-5-yl)benzoate]
34	O=C(NC1CCCC1)c1ccc(NC(=O)C2(c3ccc(C(F)(F)F)cc3F)CC2)cc1-c1nnn[nH]1 [Example 39, N-cyclopentyl-4-[({1-[2-fluoro-4-(trifluoromethyl)phenyl]cyclopropyl}carbonyl)amino]-2-(1H-tetrazol-5-yl)benzamide]
999	CC1(OC(=O)c2ccc(NC(=O)C3(c4ccc(C(F)(F)F)cc4F)CC3)cc2-c2nnn[nH]2)CCCC1 [Example 14, 1-Methylcyclopentyl 4-[({1-[2-fluoro-4-(trifluoromethyl)phenyl]cyclopropyl}-carbonyl)amino]-2-(1H-tetrazol-5-yl)benzoate]
50	Cc1ccc(NC(=O)c2ccc(NC(=O)C3(c4ccc(C(F)(F)F)cc4F)CC3)cc2-c2nnn[nH]2)nc1 [Example 56, 4-[({1-[2-Fluoro-4-(trifluoromethyl)phenyl]cyclopropyl}carbonyl)amino]-N-(5-methylpyridin-2-yl)-2-(1H-tetrazol-5-yl)benzamide]
47	Cc1cccc([C@@H]2C[C@H]2C(=O)Nc2ccc(C(=O)OC3CCCC3)c(-c3nnn[nH]3)c2)c1 (racemic) [Example 13, Cyclopentyl-4-({[2-(3-methylphenyl)cyclopropyl]carbonyl}amino)-2-(1H-tetrazol-5-yl)benzoate]
1530	O=C(N[C@H]1CCOC1)c1ccc(NC(=O)C2(c3ccc(C(F)(F)F)cc3F)CC2)cc1-c1nnn[nH]1 [Example 54, 4-[({1-[2-Fluoro-4-(trifluoromethyl)phenyl]cyclopropyl}carbonyl)amino]-N-[(3S)-tetrahydrofuran-3-yl]-2-(1H-tetrazol-5-yl)benzamide]
1240	CN(C(=O)c1ccc(NC(=O)C2(c3cccc(Cl)c3)CC2)cc1-c1nnn[nH]1)C1CCCC1 [Example 40, 4-({[1-(3-Chlorophenyl)cyclopropyl]carbonyl}amino)-N-cylcopentyl-N-methyl-2-(1H-tetrazol-5-yl)benzamide]
633	O=C(c1ccc(NC(=O)C2(c3cccc(Cl)c3)CC2)cc1-c1nnn[nH]1)N1CCCCC1 [Example 33, 1-(3-Chlorophenyl)-N-[4-(piperidin-1-ylcarbonyl)-3-(1H-tetrazol-5-yl)phenyl]cyclopropanecarboxamide]
25	Cc1cc(NC(=O)C2(c3ccc(C(F)(F)F)cc3F)CC2)cc(-c2nnn[nH]2)c1C(=O)OC1CCCC1 [Example 64, Cyclopentyl 4-[({1-[2-fluoro-4-(trifluoromethyl)phenyl]cyclopropyl}carbonyl)amino]-2-methyl-6-(1H-tetrazol-5-yl)benzoate]
1450	Cc1ccc(NC(=O)c2c(C)cc(NC(=O)C3(c4ccc(C(F)(F)F)cc4F)CC3)cc2-c2nnn[nH]2)nc1 [Example 66, 4-[({1-[2-fluroo-4-(trifluoromethyl)phenyl]cyclopropyl}carbonyl)amino]-2-methyl-N-(5-methylpyridin-2-yl)-6-(1H-tetrazol-5-yl)benzamide]
80	CC[C@H](C)NC(=O)c1ccc(NC(=O)C2(c3ccc(C(F)(F)F)cc3F)CC2)cc1-c1nnn[nH]1 [Example 38, N-[(2S)-butan-2-yl]-4-[({1-[2-fluoro-4-(trifluoromethyl)phenyl]cyclopropyl}carbonyl)amino]-2-(1H-tetrazol-5-y)benzamide]
17	COCCOC(=O)c1ccc(NC(=O)C2(c3ccc(C(F)(F)F)cc3F)CC2)cc1-c1nnn[nH]1 [Example 17, 2-Methoxyethyl 4-[({1-[2-fluoro-4-(trifluoromethyl)phenyl]cyclopropyl}-carbonyl)amino]-2-(1H-tetrazol-5-yl)benzoate]
17	CCC(C)OC(=O)c1ccc(NC(=O)C2(c3ccc(C)cc3F)CC2)cc1-c1nnn[nH]1 (racemic) [Example 9, sec-Butyl 4-({[1-(2-fluoro-4-methylphenyl)cycloporopyl]carbonyl}amino)-2-(1H-tetrazol-5-yl)benzoate]
29	Cc1ccc(NC(=O)c2ccc(NC(=O)C3(c4ccc(C(F)(F)F)cc4F)CC3)cc2-c2nnn[nH]2)cn1 [Example 57, 4-[({1-[2-Fluoro-4-(trifluoromethyl)phenyl]cyclopropyl}carbonyl)amino]-N-(6-methylpyridin-3-yl)-2-(1H-tetrazol-5-yl)benzamide]
50	CN(C(=O)c1ccc(NC(=O)C2(c3ccc(C(F)(F)F)cc3F)CC2)cc1-c1nnn[nH]1)C1CCCCC1 [Example 43, N-cyclohexyl-4-[({1-[2-fluoro-4-(trifluoromethyl)phenyl]cyclopropyl}carbonyl)amino]-N-methyl-2-(1H-tetrazol-5-yl)benzamide]
3610	O=C(N[C@@H]1CCOC1)c1ccc(NC(=O)C2(c3ccc(C(F)(F)F)cc3F)CC2)cc1-c1nnn[nH]1 [Example 53, 4-[({1-[2-Fluoro-4-(trifluoromethyl)phenyl]cyclopropyl}carbonyl)amino]-N-[(3R)-tetrahydrofuran-3-yl]-2-(1H-tetrazol-5-yl)benzamide]
